Assay results reported in publication PMC7456811, “Regulation of Melanocortin-4 Receptor Pharmacology by Two Isoforms of Melanocortin Receptor Accessory Protein 2 in Topmouth Culter (Culter alburnus)” (Frontiers in Endocrinology, 2020).
Marks after values point to notes of the source that are not given here.

Columns and labels:
caMC4R [1] = assay: Intracellular cAMP signaling (radioimmunoassay); format: cell-based, topmouth culter (Culter alburnus); settings: for stimulation of intracellular cAMP, in words / EC50 / Rmax (cAMP): HEK293T cells; for EC50: cAMP RIA; for EC50 / Rmax (cAMP): mean ± SEM of at least three independent experiments; for Rmax (cAMP): hMC4R = 100
Method: The medium contained Dulbecco's Modified Eagle's medium (DMEM) (Invitrogen, Carlsbad, CA, USA), 10% newborn calf serum, 10 mM HEPES, 50 μg/mL of gentamicin, 0.25 μg/mL of amphotericin B, 100 μg/mL of streptomycin and 100 IU/mL of penicillin. Cells were plated into 24-well or 6-well plates (Corning, NY, USA) pre-coated with 0.1% gelatin.
Radioimmunoassay for intracellular cAMP was performed as described previously ([47], [48]).
Prism 8.3 software (GraphPad, San Diego, CA, USA) was used to calculate parameters including maximal binding (Bmax), IC50, maximal response (Rmax), basal activity, and EC50. […] Ligand binding, cAMP, flow cytometry parameters of caMC4R regulated by MRAP2s and ERK1/2 signaling were analyzed for significance of differences by one-way ANOVA.
HEK293T cells were transiently transfected with MC4R plasmids. […] Data are mean ± SEM from triplicate measurements within one experiment. All experiments were performed at least three times independently.

caMC4R [2] = assay: Competitive ligand binding (125I-NDP-MSH displacement); settings: displacement of 125I-NDP-MSH; for IC50: HEK293T cells, mean ± SEM of at least three independent experiments

Molecule | stimulation of intracellular cAMP, in words (caMC4R [1]; caMC4R) | EC50 (caMC4R [1]; caMC4R) [nM] | Rmax (cAMP) (caMC4R [1]; caMC4R) | IC50 (caMC4R [2]) [nM] | binding affinity, in words (caMC4R [2]) | EC50 and Rmax compared with hMC4R, in words (caMC4R [1]; caMC4R versus hMC4R, cAMP) | allosteric agonism, in words (caMC4R [1]; caMC4R, concluded from binding and cAMP data)
[Nle^4, D-Phe^7]-α-MSH [NDP-MSH] | dose-dependently increased intracellular cAMP levels | 0.44 ± 0.24 | 84.48 ± 8.28% | 4.87 ± 1.8 | – | – | –
CSCC[C@H](NC(=O)[C@H](CCCNC(=N)N)NC(=O)[C@H](Cc1ccc(O)cc1)NC(=O)[C@@H]1CCCN1C(=O)CNC(=O)[C@H](CCC(=O)O)NC(=O)[C@H](CC(=O)O)NC(=O)[C@H](CCCCN)NC(=O)[C@H](CCCCN)NC(=O)[C@H](CCC(=O)O)NC(=O)[C@H](C)N)C(=O)N[C@@H](CCC(=O)O)C(=O)N[C@@H](Cc1c[nH]cn1)C(=O)N[C@@H](Cc1ccccc1)C(=O)N[C@@H](CCCNC(=N)N)C(=O)N[C@@H](Cc1c[nH]c2ccccc12)C(=O)NCC(=O)N[C@@H](CO)C(=O)N1CCC[C@H]1C(=O)N1CCC[C@H]1C(=O)N[C@@H](CCCCN)C(=O)N[C@@H](CC(=O)O)C(=O)O [β-MSH, β-melanocyte-stimulating hormone] | dose-dependently increased intracellular cAMP levels | 5.76 ± 1.62 | 167.74 ± 27.91% | 442 ± 65.4 | significantly higher affinity to β-MSH than hMC4R | – | –
O=C(N[C@H](Cc1ccc(Cl)cc1)C(=O)N1CCC(Cn2cncn2)(C2CCCCC2)CC1)[C@H]1Cc2ccccc2CN1 [THIQ, N-[(3R)-1,2,3,4-Tetrahydroisoquinolinium-3-ylcarbonyl]-(1R)-1-(4-chlorobenzyl)-2-[4-cyclohexyl-4-(1H-1,2,4-triazol-1-ylmethyl)piperidin-1-yl]-2-oxoethylamine] | dose-dependently increased intracellular cAMP levels | 75.7 ± 10.6 | 39.73 ± 1.37^b % | – | able to displace the ^125I-NDP-MSH bound with caMC4R | EC50 was significantly increased and Rmax was significantly decreased | not an allosteric agonist at caMC4R
